The source of these data is PubChem BioAssay AID1329 (NMMLSC, 2008).

Active and inactive are the calls of the source. How the calls were made is not given here.

This assay deals with Induced myeloid leukemia cell differentiation protein Mcl-1 (Homo sapiens) (UniProt Q07820). Briefly: Mcl-1/Bim interaction regulators – biochemical, bead-based flow cytometry, multiplexed, human, dose response (AID 1329). The settings on record: Bim peptide-Mcl-1 binding, MCF. (In flow cytometry, cells or beads pass a laser one at a time.)
Induced myeloid leukemia cell differentiation protein Mcl-1 (Homo sapiens), sequence (Q07820 whole entry, looked up): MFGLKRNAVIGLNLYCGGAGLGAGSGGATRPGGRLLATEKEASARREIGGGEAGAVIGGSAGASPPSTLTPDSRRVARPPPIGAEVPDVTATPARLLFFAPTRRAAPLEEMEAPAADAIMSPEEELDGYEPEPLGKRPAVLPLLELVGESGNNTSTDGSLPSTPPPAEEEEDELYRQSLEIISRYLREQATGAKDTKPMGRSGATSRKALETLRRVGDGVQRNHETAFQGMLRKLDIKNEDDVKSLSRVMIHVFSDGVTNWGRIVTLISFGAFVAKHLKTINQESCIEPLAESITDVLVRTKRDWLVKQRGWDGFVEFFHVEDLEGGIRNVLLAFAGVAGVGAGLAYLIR

Consider `CCC(CC)C(=O)Nc1cccc(SC)c1`, for which the percent span entry is “inactive”. For `COc1ccc(C2C(C#N)=C(C)NC3=C2S(=O)(=O)c2ccccc23)cc1` (stereo not drawn) the value was “inactive”; for `O=C(NC1=C(Nc2ccc(F)cc2)C(=O)c2ccccc2C1=O)c1ccc(Cl)cc1`, “inactive”; for `O=C(NCCCO)Nc1ccc2nc(-c3ccco3)c(-c3ccco3)nc2c1`, “inactive”.

For the molecule `COc1ccc(CN(C)CC(=O)NC(C)c2ccccc2)c(OC)c1` (stereo not drawn), the percent span entry was “inactive”. For `CC(C)C(=O)NC(c1ccccc1)c1cc([N+](=O)[O-])c2cccnc2c1O` (stereo not drawn) the value was “inactive”; for `Cc1cc(N2CCN(C)CC2)nc2ccc(NC(=S)N3CCC4(CC3)OCCO4)cc12`, “inactive”. For `Cc1ccccc1-n1c(SCc2cccc(F)c2)nc2[nH]ncc2c1=O` the value was “inactive”. For `CCOc1ccccc1C(=O)NC1CC2CCCC(C1)N2C1CC1` (stereo not drawn) the value was “inactive”; for `O=C(c1cc2ccccc2oc1=O)N(c1ccccc1)C1C=CS(=O)(=O)C1` (stereo not drawn), “inactive”. On to `Cc1cc2nc(/C(C#N)=C/c3ccncc3)[nH]c2cc1C`, for which the percent span entry is “inactive”. For `Fc1ccc(/C=C2\CCCC3=C2NC(=S)NC3c2ccc(F)cc2)cc1` (stereo not drawn) the value was “inactive”; for `FC(F)(F)c1ccc2c(c1)C1C=CCC1C(c1ccncc1)N2` (stereo not drawn), “inactive”. For `COc1ccc2oc(-c3ccccc3)c(C(=O)N3CCOCC3)c2c1` the value was “inactive”. With `Cc1cc(NC(=O)CCSc2ccccc2)ccc1Br`, the percent span entry was “inactive”.

On to `O=[N+]([O-])c1ccc(N/N=C/c2ccc(O)c(O)c2O)c(S(=O)(=O)N2CCOCC2)c1`, for which the percent span entry was “inactive”. To `CCOC(=O)C1=C(Cc2ccc(C)cc2)C(=O)c2ccccc2C1=O` belongs “inactive”.

Take `CCC(CC)C(=O)Nc1cccc(S(=O)(=O)c2cccc(NC(=O)C(CC)CC)c2)c1`: the percent span entry is “inactive”. To `Cc1cccc(N2CCN(C(=S)Nc3ccc4nc(N5CCN(C)CC5)cc(C)c4c3)CC2)c1C` belongs “inactive”; to `CC[n+]1c(/C=C/C=C/N(C(C)=O)c2ccccc2)sc2ccccc21`, “inactive”. For `CCOc1ccccc1NC(=O)CSc1nnc2ccc(-c3cccnc3)nn12` the value was “inactive”; for `O=C(NC1=NCCS1)NC12CC3CC(CC(C3)C1)C2`, “inactive”. To `O=C(CCCN1C(=O)c2cccc3cccc(c23)C1=O)N1CCN(c2ccccn2)CC1` belongs “inactive”; to `O=C(NCc1ccco1)C1CC2CCC1C2` (stereo not drawn), “inactive”; to `COC(=O)CCC(=O)Nc1sc(Cc2ccccc2)c(C)c1C(N)=O`, “inactive”. Take `Cc1nnc(NCc2n[nH]c(=O)c3ccccc23)c2ccccc12`: the percent span entry was “inactive”. For `Cc1ccc(-c2cc(-c3ccc(F)cc3)c(C#N)c(N)n2)o1` the value was “inactive”.

Regarding `Cc1ccc(-c2cc(C(=O)Nc3cccnc3)c3ccccc3n2)o1`, the percent span result is “inactive”.

Consider `CC1N(C)c2cccc3cccc(c23)N1C`, for which the percent span result is “inactive”. For the molecule `CN(C)c1ccc(Nc2nc(-c3cccnc3)cs2)cc1`, the percent span entry was “inactive”. To `COC(=O)CCC(=O)Nc1sc(C)c(C)c1C(N)=O` belongs “inactive”; to `O=C(NCCCN1CCCC1=O)NC1CCCCC1`, “inactive”.

`O=C1NC(=S)S/C1=C/c1ccc(N2CCOCC2)o1`: the percent span result was “inactive”. To `Cc1ccc(C(=O)NNC(=O)c2ccc3ncccc3c2)cc1` belongs “inactive”; to `CC1Nc2ccccc2C(=O)N1NS(C)(=O)=O` (stereo not drawn), “inactive”; to `O=C(CCc1ccccc1)N1CCN(c2ccccn2)CC1`, “inactive”. For `C/C(=N\NC(=O)Cn1nc(C)c([N+](=O)[O-])c1C)c1ccc(O)cc1` the value was “inactive”; for `CCSc1ncc(Cl)c(C(=O)Nc2sc3c(c2C(=O)NCc2cccnc2)CCCC3)n1`, “inactive”. With `CC(=O)OCCNc1cc(Sc2nc3ccccc3[nH]2)c2nonc2c1[N+](=O)[O-]`, the percent span entry is “inactive”. To `CCOc1ccc(C2=Nn3c(nnc3-c3ccco3)SC2)cc1` belongs “inactive”.

Consider `CC(=O)Nc1ccc(-n2cc(-c3ccccc3)[nH]c2=S)cc1`, for which the percent span entry was “inactive”. To `COc1ccccc1C1=Nc2cccc3cccc(c23)N1` belongs “inactive”; to `COc1cccc(N2CC(C(=O)Nc3nnc(SCC(=O)c4ccccc4)s3)CC2=O)c1` (stereo not drawn), “inactive”; to `CC1Nc2ccccc2C(=O)N1NS(=O)(=O)c1ccccc1` (stereo not drawn), “inactive”.

With `CC1CCN(C2(O)C(=O)Nc3ccc(Br)cc32)CC1` (stereo not drawn), the percent span entry is “inactive”. To `O=C(N/N=C/c1ccc(-c2ccccc2[N+](=O)[O-])o1)c1cncc(Br)c1` belongs “inactive”; to `Cc1ccccc1/C=N/Nc1ccnc2cc(Cl)ccc12`, “inactive”; to `c1ccc2c(N3CCOCC3)nc(N3CCOCC3)nc2c1`, “inactive”. In the case of `Cc1cc(C)nc(/N=C(\N)N2CCc3ccccc32)n1`, the percent span entry was “inactive”.

As to `COc1ccc(S(=O)(=O)NCCSc2ccccc2)cc1OC`, the percent span result was “inactive”. For `CC1Cc2ccccc2N1C(=O)CSc1nnnn1-c1ccc2c(c1)OCCO2` (stereo not drawn) the value was “inactive”.

Take `O=C(CNC(=O)c1ccco1)NCC(=O)OCc1ccccc1Br`: the percent span result was “inactive”. For `CCn1c(C)c(/C=N/Nc2nc3ccccc3s2)c2ccccc21`, the percent span entry was “inactive”.

With `Cc1nnc(Sc2cc(NCCCO)c([N+](=O)[O-])c3nonc23)s1`, the percent span result was “inactive”. For `CC(=O)NC(=O)Nc1sc(=S)n(C)c1C` the value was “inactive”; for `CCSc1ncnc2sc(C)c(C)c12`, “inactive”; for `COP(=O)(CC(=O)O)c1ccccc1` (stereo not drawn), “inactive”. For `Clc1ccc2c(N/N=C/c3ccc(Br)cc3)ccnc2c1` the value was “inactive”. To `COC(=O)C1C2c3ccccc3OC1(C)N=c1s/c(=C/c3cnn(C)c3C)c(=O)n12` (stereo not drawn) belongs “inactive”; to `CCCc1nnc2n1N=C(c1ccc(-c3cc(Cl)ccc3Cl)o1)CS2`, “inactive”; to `CCOc1ccc(-n2cc(-c3ccc(OC)c(OC)c3)[nH]c2=S)cc1`, “inactive”.

Take `Cc1ccc(Nc2nc(C)cs2)cc1`: the percent span result was “inactive”. For the molecule `O=C(c1cccc(Br)c1)N1CCN(c2cnn(-c3ccccc3)c(=O)c2Cl)CC1`, the percent span entry was “inactive”. For `COc1cccc(/C=N/NC(=O)c2cc3cc([N+](=O)[O-])ccc3s2)c1O` the value was “inactive”. To `CCOC(=O)CSc1nnc(-c2cccc(Cl)c2)n1CC` belongs “inactive”; to `COc1ccc(NS(=O)(=O)c2cc(NC(=O)c3ccc(C)o3)ccc2N2CCCCC2)cc1`, “inactive”; to `COc1cc2[nH]c(=S)nc(NCCCOC(C)C)c2cc1OC`, “inactive”. To `O=C1CSc2ccc(C(=O)Nc3cccc(S(=O)(=O)Nc4ccc(Br)cc4)c3)cc2N1` belongs “inactive”; to `Cc1ccc(-c2ccc(/C=C3\SC(N4CCOCC4)=NC3=O)o2)cc1`, “inactive”. In the case of `Cc1cccc(-n2c(-c3ccncc3)n[nH]c2=S)c1`, the percent span entry is “inactive”.

For the molecule `Fc1cccc(Nc2nc(-c3ccncc3)nc3ccccc23)c1`, the percent span entry was “inactive”.

For `O=C(Nc1ccccn1)c1cc2ccccc2o1`, the percent span entry is “inactive”. For `COc1cc(/C=C2\CC/C(=C\c3cc(OC)c(O)c(OC)c3)C2=O)cc(OC)c1O` the value was “inactive”. Turning to `CNc1ccc(Br)cc(C(=O)/C=C/c2ccc(OC)cc2OC)c1=O`, the percent span entry is “inactive”. For `CN(C)c1ccc(/C=C2/SC(=O)N(CCN=C3NS(=O)(=O)c4ccccc43)C2=O)cc1` the value was “inactive”. To `COc1ccc(/C=C/C(=O)Nc2sc(Cc3ccccc3)c(C)c2C(N)=O)cc1` belongs “inactive”; to `Cc1ccc(-c2n[nH]c(=S)n2-c2ccccc2)cc1`, “inactive”; to `O=C(O)/C=C/C(=O)NNC(=O)c1ccc(Br)cc1`, “inactive”. On to `CCN(CC)c1ccc(NC(=O)c2ccccc2)cc1S(=O)(=O)Nc1ccccc1OC`, for which the percent span entry was “inactive”.

`CCN1CCN(c2cc(C)c3cc(NC(=S)N4CCN(c5ccccc5)CC4)ccc3n2)CC1`: the percent span result is “inactive”. For `Cc1cccc(-n2c(O)c(/C=N/N3CCOCC3)c(=O)[nH]c2=S)c1` the value was “inactive”; for `CCOC(=O)c1c(NC(C)=O)sc2c(O)c(Br)cc(Br)c12`, “inactive”; for `Nc1ccc(N2CCN(CCCCN3C(=O)C4CCCN4C3=O)CC2)cc1` (stereo not drawn), “inactive”. For `Cc1ccc(-c2cc(-c3ccc(C)o3)nc(N)c2C#N)cc1` the value was “inactive”. To `CCSc1nnc(NC(=O)c2c(-c3ccccc3Cl)noc2C)s1` belongs “inactive”.

Regarding `Cc1ccc(S(=O)(=O)NC(=O)COc2ccccc2C)cc1`, the percent span result was “inactive”.

With `Cc1cc(N/C(=N/S(=O)(=O)c2cc(F)ccc2F)c2ccccc2)n(-c2ccccc2)n1`, the percent span entry was “inactive”. For `CCOC(=O)c1sc(N)c(C(=O)Nc2ccccc2OC)c1C` the value was “inactive”. For `CCOc1cc(S(=O)(=O)N2CCCCC2)ccc1F` the value was “inactive”; for `OC(COc1ccc2cc(Br)ccc2c1)CN1CCOCC1` (stereo not drawn), “inactive”. Take `COCCNC(=O)CN1CCC(NC(=O)Nc2ccccc2)CC1`: the percent span result is “inactive”.

With `CN(C)C(=O)N1CCC(C(=O)NC2CCCCCCC2)CC1`, the percent span result is “inactive”.

On to `COc1cccc(/C=N/Nc2nn3cnnc3c3ccccc23)c1`, for which the percent span entry was “inactive”.
